According to patent publication US10433539B2, “Composition and solution with controlled calcium ion level, and related method and use for reperfusion” (TEVOSOL, INC., priority 2014, dated 2019):

Test system: harvested pig hearts
Conditions: 500 μmol/L lidocaine in cardioplegic compositions, combined data of Part 1 and Part 2 (1, 3, 5 hours)
Source text: Part 1: The next study assessed if there were potential incremental benefits to increasing the duration of reperfusion of harvested donor hearts with a mildly acidic hypocalcemic oxygenated cardioplegic composition.
The sample solutions used for these tests were the same as Sample solutions IIIC described above.

## CCN(CC)CC(=O)Nc1c(C)cccc1C [lidocaine]
  effect of lidocaine concentration on donor heart myocardial function: debilitating effects
